Laboratory results published in US12201601B2, “Treatment for obesity” (Axsome Malta Ltd., priority 2013, dated 2025).

Key:
[1] = 52-week repeated dose oral toxicity study in beagle dogs: food consumption; assay type: in vivo
Description: (§1) A 52-week repeated dose oral toxicity study with 13-week recovery was carried out in beagle dogs for R228060 (Formula Ib). Body weight and food consumption were monitored throughout the study (see Table 1).

[2] = 52-week repeated dose oral toxicity study with 13-week recovery in beagle dogs: body weight; assay type: in vivo; conditions: for Body weight variation during the treatment-free period only (value in brackets, Table 1): Day 455
Description: as §1

[3] = classic rat self-administration model
[4] = 6-month repeated dose oral toxicity study in rats: food consumption; assay type: in vivo
Description: (§2) A 6-month repeated dose oral toxicity study with 3-month recovery was carried out in rats for R228060 (Formula Ib). Body weight and food consumption were monitored throughout the study.

[5] = 6-week randomized, double blind, active and placebo-controlled study in adult subjects with major depressive disorder: body weight; assay type: in vivo, Humans; conditions: for Mean weight loss / Subjects with weight Decrease ≥7% / Subjects with weight Increase <7% / Subjects with weight Increase ≥7% / Subjects with weight No change/decrease <7% / Weight, Change from Baseline, Mean / Weight, Change from Baseline, Median: baseline to endpoint; for Weight, End point, Mean / Weight, End point, Median: 6-week study
Description: A 6-week randomized, double blind, parallel group, active and placebo-controlled study was carried out to assess the efficacy of R228060 in adult subjects with major depressive disorder (MDD). Body weight was monitored throughout the study.

[6] = 6-month repeated dose oral toxicity study with 3-month recovery in rats: body weight; assay type: in vivo; conditions: for Body weight gain (in words) / Body weight (in words): p<0.05-0.001; for Body weight after cessation of treatment (in words): recovery period; for Decreases in body weight gain at the end of the treatment period: conclusion over dose levels
Description: as §2

[7] = nonclinical studies in mice, rats, and dogs: body weight and food consumption; assay type: in vivo
[8] = female rats, 600/450 mg HCl-salt/kg
[9] = male rats, 600/450 mg HCl-salt/kg

SMILES: NC(=O)OC[C@H](N)Cc1ccccc1 [Formula R228060, (R)-(beta-amino-benzenepropyl) carbamate]
- Food consumption (in words) ([1]; all female dogs, 50 mg/kg bw/day, first week of treatment): lower food consumption, which was marked for 3/6 animals
- Food consumption during the treatment-free period (in words) ([1]; dogs, any animal): No effect on food consumption
- Lower food consumption ([1]; female dogs, 25 mg/kg bw/day, first week of treatment): −25 to −50 % of the daily portion
- Reduced food consumption ([1]; male dogs, 50 mg/kg bw/day, mainly first week of treatment): about −50 % of the daily portion
- Reduced food consumption compared to control ([1]; one male dog, 25 mg/kg bw/day, first week of treatment): about −40%
- Slightly lower food consumption ([1]; three out of four female dogs, 10 mg/kg bw/day, first week of treatment): about −25 % of the daily portion
- Body weight change (Table 1) ([2]; dogs, 10 mg/kg bw/day, females, Day 4): −6%
- Body weight change (Table 1) ([2]; dogs, 10 mg/kg bw/day, females, Day 21): −2%
- Body weight change (Table 1) ([2]; dogs, 10 mg/kg bw/day, females, Day 182): +26%
- Body weight change (Table 1) ([2]; dogs, 10 mg/kg bw/day, females, Day 364): +25%
- Body weight change (Table 1) ([2]; dogs, 10 mg/kg bw/day, males, Day 4): −1%
- Body weight change (Table 1) ([2]; dogs, 10 mg/kg bw/day, males, Day 21): 0%
- Body weight change (Table 1) ([2]; dogs, 10 mg/kg bw/day, males, Day 182): +22%
- Body weight change (Table 1) ([2]; dogs, 10 mg/kg bw/day, males, Day 364): +32%
- Body weight change (Table 1) ([2]; dogs, 25 mg/kg bw/day, females, Day 4): −7%
- Body weight change (Table 1) ([2]; dogs, 25 mg/kg bw/day, females, Day 21): −4%
- Body weight change (Table 1) ([2]; dogs, 25 mg/kg bw/day, females, Day 182): +16%
- Body weight change (Table 1) ([2]; dogs, 25 mg/kg bw/day, females, Day 364): +26%
- Body weight change (Table 1) ([2]; dogs, 25 mg/kg bw/day, males, Day 4): −4%
- Body weight change (Table 1) ([2]; dogs, 25 mg/kg bw/day, males, Day 21): −4%
- Body weight change (Table 1) ([2]; dogs, 25 mg/kg bw/day, males, Day 182): +71%
- Body weight change (Table 1) ([2]; dogs, 25 mg/kg bw/day, males, Day 364): +19%
- Body weight change (Table 1) ([2]; dogs, 50 mg/kg bw/day, females, Day 4): −9%
- Body weight change (Table 1) ([2]; dogs, 50 mg/kg bw/day, females, Day 21): −12%
- Body weight change (Table 1) ([2]; dogs, 50 mg/kg bw/day, females, Day 182): +11%
- Body weight change (Table 1) ([2]; dogs, 50 mg/kg bw/day, females, Day 364): +9%
- Body weight variation during the treatment-free period only (value in brackets, Table 1) ([2]; dogs, 50 mg/kg bw/day, females): +26% (+26%)
- Body weight change (Table 1) ([2]; dogs, 50 mg/kg bw/day, females, Day 455 (end of treatment-free period)): +26% (+26%)
- Body weight change (Table 1) ([2]; dogs, 50 mg/kg bw/day, males, Day 4): −9%
- Body weight change (Table 1) ([2]; dogs, 50 mg/kg bw/day, males, Day 21): −12%
- Body weight change (Table 1) ([2]; dogs, 50 mg/kg bw/day, males, Day 182): +7%
- Body weight change (Table 1) ([2]; dogs, 50 mg/kg bw/day, males, Day 364): +9%
- Body weight variation during the treatment-free period only (value in brackets, Table 1) ([2]; dogs, 50 mg/kg bw/day, males): +6%
- Body weight change (Table 1) ([2]; dogs, 50 mg/kg bw/day, males, Day 455 (end of treatment-free period)): +12%
- Mean body weight gain compared to control (in words) ([2]; dogs, treated groups, days 182 and 364): lower does-relative mean body weight gain
- Day on which weight returned to the initial weight ([2]; female dogs, 10 mg/kg bw/day): 28 days
- Mean body weight loss ([2]; female dogs, 10 mg/kg bw/day, first 4 days of treatment): 0.4 kg
- Day on which weight returned to the initial weight ([2]; female dogs, 25 mg/kg bw/day): 42 days
- Mean body weight loss ([2]; female dogs, 25 mg/kg bw/day, first 4 days of treatment): 0.5 kg
- Mean body weight loss ([2]; female dogs, 50 mg/kg bw/day, first 4 days of treatment): 0.7 kg
- Body weight gain during the treatment-free period compared to controls (in words) ([2]; group 4 females): higher body weight gain
- Body weight gain during the treatment-free period compared to controls (in words) ([2]; group 4 males): only slightly higher
- Day on which weight returned to the initial weight ([2]; high dose female group (50 mg/kg bw/day)): 77 days
- Mean body weight loss ([2]; high dose female group (50 mg/kg bw/day), day 21): 0.8 kg
- Day on which weights returned to the initial values ([2]; high dose male group (50 mg/kg bw/day)): 126 days
- Mean body weight loss ([2]; high dose male group (50 mg/kg bw/day), day 21): 0.8 kg
- Day on which weights returned to initial weights ([2]; male dogs, 25 mg/kg bw/day): 35 days
- Mean body weight loss ([2]; male dogs, 25 mg/kg bw/day, first 4 days of treatment): 0.3 kg
- Mean body weight loss ([2]; male dogs, 50 mg/kg bw/day, first 4 days of treatment): 0.7 kg
- Abuse potential: reinforcing properties (in words) [3]: not reinforcing
- Statistically significant increases in food consumption (assessment in words) ([4]; female rats, 35, 300 and 600/450 mg HCl-salt/kg body weight level): toxicologically irrelevant
- Food consumption (significance, in words) ([4]; rats, 300 and 600/450 mg HCl-salt/kg body weight level): statistically significant decreases
- Food consumption (in words) ([4]; rats, both sexes, first weeks of dosing, starting at 35 mg HCl-salt/kg body weight/day for males and 300 for females): dose-related decrease in food consumption
- Weight relative to placebo treated patients (in words) ([5]; 6-week clinical study in major depressive disorder patients): dose-related decrease in weight relative to placebo treated patients
- Number of subjects with a decrease in weight of 7% or more ([5]; 200-mg group): 1 subjects
- Percentage of subjects with a decrease in weight of 7% or more ([5]; 200-mg group): 0.9%
- Mean weight loss ([5]; 200-mg group): 0.6 kg
- Number of subjects with a decrease in weight of 7% or more ([5]; 400-mg group): 3 subjects
- Percentage of subjects with a decrease in weight of 7% or more ([5]; 400-mg group): 2.5%
- Mean weight loss ([5]; 400-mg group): 0.9 kg
- Mean change from baseline to endpoint in BMI ([5]; R228060 200 mg): −0.2 kg/m^2
- Subjects with weight Decrease ≥7% ([5]; R228060 200 mg (N = 116)): 1 (0.9) n (%)
- Subjects with weight Increase <7% ([5]; R228060 200 mg (N = 116)): 39 (33.6) n (%)
- Subjects with weight Increase ≥7% ([5]; R228060 200 mg (N = 116)): 1 (0.9) n (%)
- Subjects with weight No change/decrease <7% ([5]; R228060 200 mg (N = 116)): 75 (64.7) n (%)
- Weight, End point, Mean ([5]; R228060 200 mg group): 85.4 kg
- Weight, End point, Median ([5]; R228060 200 mg group): 83.4 kg
- Weight, Change from Baseline, Mean ([5]; R228060 200 mg group): -0.6 kg
- Weight, Change from Baseline, Median ([5]; R228060 200 mg group): -0.5 kg
- Mean change from baseline to endpoint in BMI ([5]; R228060 400 mg): −0.3 kg/m^2
- Subjects with weight Decrease ≥7% ([5]; R228060 400 mg (N = 120)): 3 (2.5) n (%)
- Subjects with weight Increase <7% ([5]; R228060 400 mg (N = 120)): 27 (22.5) n (%)
- Subjects with weight Increase ≥7% ([5]; R228060 400 mg (N = 120)): 0 n (%)
- Subjects with weight No change/decrease <7% ([5]; R228060 400 mg (N = 120)): 90 (75.0) n (%)
- Weight, End point, Mean ([5]; R228060 400 mg group): 83.2 kg
- Weight, End point, Median ([5]; R228060 400 mg group): 78.9 kg
- Weight, Change from Baseline, Mean ([5]; R228060 400 mg group): -0.9 kg
- Weight, Change from Baseline, Median ([5]; R228060 400 mg group): -0.9 kg
- Reporting of anorexia (in words) ([5]; compound-treated groups, 6-week clinical study): increase in reporting of anorexia
- Abuse potential: rewarding properties (in words) (place preference model): no significant rewarding properties
- Body weight and body weight gain (in words) ([6]; female rats, 35 mg HCl-salt/kg body weight/day oral for 6 consecutive months): did not adversely affect body weight and body weight gain
- Body weight gain decreased compared to the control group ([6]; female rats, 300 mg HCl-salt/kg body weight/day oral, week 13): 15%
- Body weight gain decreased compared to the control group ([6]; female rats, 300 mg HCl-salt/kg body weight/day oral, week 26): 23%
- Body weight gain (in words) ([6]; female rats, 300 mg HCl-salt/kg body weight/day, especially towards end of dosing period): moderate to pronounced decrease
- Body weight (in words) ([6]; female rats, 300 mg HCl-salt/kg body weight/day): moderately decreased body weight
- Remaining body weight difference at the end of the recovery period compared to control animals (in words) [6, 8]: only slightly lower
- Body weight gain decreased ([6]; female rats, 600/450 mg HCl-salt/kg body weight/day oral, week 13): 18%
- Body weight gain decreased ([6]; female rats, 600/450 mg HCl-salt/kg body weight/day oral, week 26): 21%
- Body weight gain (in words) ([6]; female rats, 600/450 mg HCl-salt/kg body weight/day, from first week of dosing): moderate to pronounced decrease in body weight gain
- Body weight (in words) ([6]; female rats, 600/450 mg HCl-salt/kg body weight/day): moderately decreased body weight
- Body weight after cessation of treatment (in words) [6, 8]: partial regain of their normal body weight
- Decreases in body weight gain at the end of the treatment period ([6]; female rats): ≤ 21%
- Body weight gain decreased ([6]; male rats, 35 mg HCl-salt/kg body weight/day oral, week 13, vs control): 6%
- Body weight gain decreased ([6]; male rats, 35 mg HCl-salt/kg body weight/day oral, week 26, vs control): 5%
- Body weight and weight gain (in words) ([6]; male rats, 35 mg HCl-salt/kg body weight/day, significant weeks 8-12 (gain) and 10-12 (weight), p<0.05): slightly lower compared to control rats
- Body weight gain decreased ([6]; male rats, 300 mg HCl-salt/kg body weight/day oral, week 13): 27%
- Body weight gain decreased ([6]; male rats, 300 mg HCl-salt/kg body weight/day oral, week 26): 24%
- Body weight and body weight gain (in words) ([6]; male rats, 300 mg HCl-salt/kg body weight/day, from first week of dosing, p<0.001): pronounced decrease in body weight and body weight gain
- Body weight at the end of the three month recovery period compared to control animals (in words) [6, 9]: still moderately lower
- Body weight gain decreased ([6]; male rats, 600/450 mg HCl-salt/kg body weight/day oral, week 13): 33%
- Body weight gain decreased ([6]; male rats, 600/450 mg HCl-salt/kg body weight/day oral, week 26): 32%
- Body weight and body weight gain (in words) ([6]; male rats, 600/450 mg HCl-salt/kg body weight/day, from week 1 onwards, p<0.001): pronounced decrease in body weight and body weight gain
- Body weight after cessation of treatment (in words) [6, 9]: partial regain of their normal (control) body weight
- Decreases in body weight gain at the end of the treatment period ([6]; male rats): up to 32%
- Body weights and body weight gains (conclusion in words) ([6]; rats, starting at 35 mg HCl-salt/kg body weight/day for males and 300 for females): dose-related decrease
- Body weight, body weight gain and food consumption (in words) [7]: decreases in body weight and/or body weight gain as well as reductions in food consumption
